ChEMBL document CHEMBL1131814, “Structure-activity relationship of N-methyl-N-aralkyl-peptidylamines as novel N-type calcium channel blockers” (Bioorg Med Chem Lett, 1999)

Experiments:
Mus musculus [1] = experiment: Percentage of protection from audiogenic tonic seizures in DBA/2 mice after intravenous administration at a dose of 30 mg/kg; type: functional
[2] = molecular target: Voltage-dependent N-type calcium channel subunit alpha-1B (Homo sapiens, UniProt Q00975); experiment: Inhibition of N-type calcium channels in IMR-32 human neuroblastoma cells; type: cell-based
Mus musculus [3] = experiment: Percentage of protection from audiogenic tonic seizures in DBA/2 mice after intravenous administration at a dose of 10 mg/kg; type: functional

Chain of Voltage-dependent N-type calcium channel subunit alpha-1B (Q00975 whole entry): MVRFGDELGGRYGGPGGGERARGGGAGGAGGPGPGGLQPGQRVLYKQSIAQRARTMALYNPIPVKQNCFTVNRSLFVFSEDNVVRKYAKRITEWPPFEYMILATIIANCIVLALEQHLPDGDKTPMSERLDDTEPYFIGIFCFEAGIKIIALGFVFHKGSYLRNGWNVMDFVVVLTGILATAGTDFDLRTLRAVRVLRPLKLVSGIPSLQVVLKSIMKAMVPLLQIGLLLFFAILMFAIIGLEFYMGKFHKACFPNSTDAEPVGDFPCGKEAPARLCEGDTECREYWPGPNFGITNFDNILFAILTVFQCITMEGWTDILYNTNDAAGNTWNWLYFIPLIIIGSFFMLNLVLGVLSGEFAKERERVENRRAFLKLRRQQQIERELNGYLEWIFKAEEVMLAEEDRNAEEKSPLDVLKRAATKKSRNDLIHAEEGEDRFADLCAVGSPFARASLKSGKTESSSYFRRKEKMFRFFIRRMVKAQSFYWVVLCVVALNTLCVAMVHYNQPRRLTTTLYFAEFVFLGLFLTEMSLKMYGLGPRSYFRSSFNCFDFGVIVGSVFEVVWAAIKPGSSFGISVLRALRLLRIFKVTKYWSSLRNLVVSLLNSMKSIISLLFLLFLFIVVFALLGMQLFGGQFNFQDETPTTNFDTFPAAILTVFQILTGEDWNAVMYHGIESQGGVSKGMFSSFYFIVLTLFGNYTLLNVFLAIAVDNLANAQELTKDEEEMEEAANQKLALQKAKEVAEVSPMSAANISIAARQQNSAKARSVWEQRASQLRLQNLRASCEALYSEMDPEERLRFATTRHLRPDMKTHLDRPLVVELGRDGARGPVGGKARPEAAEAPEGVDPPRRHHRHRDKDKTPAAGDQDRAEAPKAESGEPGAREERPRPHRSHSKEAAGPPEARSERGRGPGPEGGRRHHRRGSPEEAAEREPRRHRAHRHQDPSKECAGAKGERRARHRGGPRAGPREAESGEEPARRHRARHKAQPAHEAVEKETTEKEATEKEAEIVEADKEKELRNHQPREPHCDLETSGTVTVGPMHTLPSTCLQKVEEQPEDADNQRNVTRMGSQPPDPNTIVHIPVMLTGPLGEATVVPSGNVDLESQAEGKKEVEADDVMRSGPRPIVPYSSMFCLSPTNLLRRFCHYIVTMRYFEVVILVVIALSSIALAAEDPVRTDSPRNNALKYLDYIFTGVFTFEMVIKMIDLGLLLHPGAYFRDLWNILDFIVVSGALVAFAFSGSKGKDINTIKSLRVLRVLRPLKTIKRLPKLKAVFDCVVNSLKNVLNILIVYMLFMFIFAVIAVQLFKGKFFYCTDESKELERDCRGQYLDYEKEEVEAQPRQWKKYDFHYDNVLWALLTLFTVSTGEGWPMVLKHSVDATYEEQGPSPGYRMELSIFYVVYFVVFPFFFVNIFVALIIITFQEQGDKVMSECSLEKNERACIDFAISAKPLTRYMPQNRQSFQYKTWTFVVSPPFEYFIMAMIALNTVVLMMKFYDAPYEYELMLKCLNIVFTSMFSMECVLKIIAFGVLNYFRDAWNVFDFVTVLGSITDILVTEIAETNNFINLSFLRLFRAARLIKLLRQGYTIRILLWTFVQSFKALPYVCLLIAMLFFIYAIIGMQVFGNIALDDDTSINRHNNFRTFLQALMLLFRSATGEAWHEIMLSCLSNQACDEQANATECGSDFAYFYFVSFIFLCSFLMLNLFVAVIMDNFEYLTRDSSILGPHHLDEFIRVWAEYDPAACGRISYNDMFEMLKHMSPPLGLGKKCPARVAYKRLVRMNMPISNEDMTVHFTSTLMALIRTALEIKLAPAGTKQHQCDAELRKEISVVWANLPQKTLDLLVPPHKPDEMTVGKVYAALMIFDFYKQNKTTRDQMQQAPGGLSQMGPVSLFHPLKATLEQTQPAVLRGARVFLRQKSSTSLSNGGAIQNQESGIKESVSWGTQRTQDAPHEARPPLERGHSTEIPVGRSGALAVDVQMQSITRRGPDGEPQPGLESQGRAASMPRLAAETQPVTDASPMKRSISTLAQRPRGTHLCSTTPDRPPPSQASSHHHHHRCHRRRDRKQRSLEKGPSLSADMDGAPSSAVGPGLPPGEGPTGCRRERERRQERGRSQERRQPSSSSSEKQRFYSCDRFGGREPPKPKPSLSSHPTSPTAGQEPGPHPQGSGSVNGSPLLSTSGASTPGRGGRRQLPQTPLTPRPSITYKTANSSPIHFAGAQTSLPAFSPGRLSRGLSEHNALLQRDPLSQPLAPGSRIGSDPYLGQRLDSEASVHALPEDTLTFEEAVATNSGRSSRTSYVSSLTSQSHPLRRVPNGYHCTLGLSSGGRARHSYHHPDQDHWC

| IC50 [2] [nM] | SMILES | Protection (Mus musculus [1]) [%] | Protection (Mus musculus [3]) [%] |
| --- | --- | --- | --- |
| 1600 | CC(C)C[C@@H](C(=O)N[C@@H](Cc1ccc(OC(=O)c2ccccc2)cc1)C(=O)NC(C)(C)C)N(C)Cc1ccco1 | 60 | – |
| 230 | CC(C)C[C@@H](C(=O)N[C@@H](Cc1ccc(OC(=O)c2ccccc2)cc1)C(=O)NC(C)(C)C)N(C)Cc1ccc(Cl)cc1 | – | – |
| 360 | CC(C)C[C@@H](C(=O)N[C@@H](Cc1ccc(OC(=O)c2ccccc2)cc1)C(=O)NC(C)(C)C)N(C)Cc1ccccc1 | – | – |
| 36 | CC(C)C[C@@H](C(=O)N[C@@H](Cc1ccc(OC(=O)c2ccccc2)cc1)C(=O)NC(C)(C)C)N(C)Cc1ccc(C(C)(C)C)cc1 | 60 | – |
| 1000 | CC(C)C[C@@H](C(=O)N[C@@H](Cc1ccc(OC(=O)c2ccccc2)cc1)C(=O)NC(C)(C)C)N(C)Cc1ccc(O)cc1 | – | – |
| 1700 | CC(C)C[C@@H](C(=O)N[C@@H](Cc1ccc(OC(=O)c2ccccc2)cc1)C(=O)NC(C)(C)C)N(C)Cc1cccnc1 | – | – |
| 1700 | CC(C)C[C@@H](C(=O)N[C@@H](Cc1ccc(OC(=O)c2ccccc2)cc1)C(=O)NC(C)(C)C)N(C)CCc1ccccc1 | – | – |
| 500 | COc1ccc(CN(C)[C@@H](CC(C)C)C(=O)N[C@@H](Cc2ccc(OC(=O)c3ccccc3)cc2)C(=O)NC(C)(C)C)cc1 | 100 | 40 |
| 680 | CC(C)C[C@@H](C(=O)N[C@@H](Cc1ccc(OC(=O)c2ccccc2)cc1)C(=O)NC(C)(C)C)N(C)CC1CCCCC1 | 100 | 20 |
| 130 | CC(C)C[C@@H](C(=O)N[C@@H](Cc1ccc(OC(=O)c2ccccc2)cc1)C(=O)NC(C)(C)C)N(C)Cc1ccc(Br)cc1 | – | – |
| 1900 | CC(C)C[C@@H](C(=O)N[C@@H](Cc1ccc(OC(=O)c2ccccc2)cc1)C(=O)NC(C)(C)C)N(C)CCCc1ccccc1 | – | – |
| 560 | CC(C)C[C@@H](C(=O)N[C@@H](Cc1ccc(OC(=O)c2ccccc2)cc1)C(=O)NC(C)(C)C)N(C)Cc1ccccc1Cl | – | – |
| 280 | CC(C)C[C@@H](C(=O)N[C@@H](Cc1ccc(OC(=O)c2ccccc2)cc1)C(=O)NC(C)(C)C)N(C)Cc1ccc(N(C)C)cc1 | 80 | – |
| 1000 | CC(C)C[C@@H](C(=O)N[C@@H](Cc1ccc(OC(=O)c2ccccc2)cc1)C(=O)NC(C)(C)C)N(C)Cc1cccc(Cl)c1 | – | – |
